{
  "source": "patent US11325905B2",
  "about": "“Imidopiperidine compounds as inhibitors of human polynucleotide kinase phosphatase” (THE GOVERNORS OF THE UNIVERSITY OF ALBERTA, priority 2017, dated 2022)",
  "key": {"[1]": {"molecular_target": "EGFR (Homo sapiens (Human), UniProt P00533)", "conditions": "read-out: dissociation constant; cited from earlier work"}, "[2]": {"test": "Solubility", "assay_type": "physicochemical"}, "[3]": {"tested_on": "HCT116 cells", "test": "MTS cell proliferation assay", "assay_type": "cell-based, human", "conditions": "for usable concentration in clonogenic survival assays (not affecting cell growth): 72 h MTS", "method": "Free inhibitor was dissolved in DMSO in a way to keep the final concentration of DMSO<1%. After 72 h, 11 μL of the pre-mixed optimized dye solution (tetrazolium dye) was added to each well and cells were incubated for 4 more hours at 37° C. The absorbance recorded at 490 nm on a FLUOstar Optima® plate reader (BMG Labtech Inc., Durham, N.C.) was used as a representation of the relative number of metabolically active cells in the culture."}, "[4]": {"tested_on": "HCT116 cells", "test": "Clonogenic survival assay, radio/chemosensitization", "assay_type": "cell-based, human", "method": "(§1) Cells, seeded in 60-mm dishes 24 hours in advance, were treated with PNKP inhibitors for 9-14 consecutive days at nontoxic concentrations. […] Colonies consisting of 50 cells or more were counted using an automated colony counter (Oxford Optronix, Abingdon, UK)."}, "[5]": {"tested_on": "HCT116 PTEN−/− cells", "test": "Clonogenic survival assay, synthetic lethality", "assay_type": "cell-based, human", "method": "(§2) Cells, seeded in 60-mm dishes 24 hours in advance, were treated with PNKP inhibitors for 9-14 consecutive days at nontoxic concentrations. Colonies were then stained with a crystal violet (Sigma, Oakville, ON, CA) stain containing 25% methanol for 30 min, after which the plates were washed in warm water and left to dry overnight. Colonies consisting of 50 cells or more were counted using an automated colony counter (Oxford Optronix, Abingdon, UK).\n(§3) To investigate whether the new encapsulated PNKP 3′-phosphatase inhibitors could induce a synthetic lethal response in PTEN-deficient cells, we performed clonogenic survival assays with both HCT116 PTEN+/+ and HCT116 PTEN−/− cells. […] However, the disruption of PNKP (chemically by inhibitors) or PTEN (genetically) individually was not lethal. These findings confirm our previous observation that a synthetic lethal relationship exists between PTEN and PNKP."}, "[6]": {"tested_on": "HCT116 PTEN+/+ cells", "test": "Clonogenic survival assay, PTEN wild-type control cells", "assay_type": "cell-based", "conditions": "encapsulated, 9-14 days", "method": "as §2, §3"}, "[7]": {"molecular_target": "T1, PNKP (Homo sapiens (Human), UniProt Q96T60)", "test": "Binding affinity (Kd) by steady-state fluorescence spectroscopy, protein tryptophan fluorescence quenching", "method": "(§4) We chose to first rate and compare the analogues using a single-point measurement at 20 μM concentration. […] Only the top-rated analogues were further evaluated with an IC50 and a dissociation constant (Kd) determination.\nFreschauf, G. K., Mani, R. S., Mereniuk, T. R., Fanta, M., Virgen, C. A., Dianov, G. L., Grassot, J. M., Hall, D. G., and Weinfeld, M. Mechanism of action of an imido-piperidine inhibitor of human polynucleotide kinase/phosphatase."}, "[8]": {"molecular_target": "T1, PNKP", "test": "Universal molecular beacon (U-MB) fluorescence assay of PNKP phosphatase activity, IC50", "assay_type": "biochemical", "method": "as §4"}, "[9]": {"molecular_target": "T1, PNKP", "conditions": "intrinsic (tryptophan) fluorescence quenching titration, earlier publication; read-out: dissociation constant (Kd); cited from earlier work"}, "[10]": {"molecular_target": "murine PNKP (Mus musculus (Mouse), UniProt Q9JLV6)", "sequence (Q9JLV6 whole entry)": "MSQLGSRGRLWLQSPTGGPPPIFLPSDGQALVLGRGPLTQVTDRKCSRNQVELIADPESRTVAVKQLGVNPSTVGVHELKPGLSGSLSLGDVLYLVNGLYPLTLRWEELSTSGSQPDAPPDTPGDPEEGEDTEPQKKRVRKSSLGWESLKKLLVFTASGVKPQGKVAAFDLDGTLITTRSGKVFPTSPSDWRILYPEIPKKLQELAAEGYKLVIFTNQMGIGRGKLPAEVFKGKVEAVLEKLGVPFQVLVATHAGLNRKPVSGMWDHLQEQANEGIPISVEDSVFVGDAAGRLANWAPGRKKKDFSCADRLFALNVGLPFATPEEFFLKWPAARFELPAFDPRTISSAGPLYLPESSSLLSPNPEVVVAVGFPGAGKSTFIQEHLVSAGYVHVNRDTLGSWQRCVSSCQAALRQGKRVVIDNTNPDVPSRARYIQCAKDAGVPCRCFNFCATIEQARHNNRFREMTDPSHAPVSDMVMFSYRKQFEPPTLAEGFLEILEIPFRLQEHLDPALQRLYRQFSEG", "conditions": "compared with human PNKP; cited from earlier work"}, "[11]": {"tested_on": "limited panel of phosphatase enzymes", "conditions": "cited from earlier work"}, "[12]": {"conditions": "concentrations of 5-10 μM; cited from earlier work"}, "[13]": {"tested_on": "human A549 lung carcinoma cells", "conditions": "non-toxic doses; cited from earlier work"}, "[14]": {"tested_on": "MDA-MB-231 breast cancer cells", "conditions": "non-toxic doses; cited from earlier work"}, "[15]": {"tested_on": "cells in which PNKP expression was down-regulated by shRNA", "conditions": "cited from earlier work"}, "[16]": {"tested_on": "myeloid leukemia cells", "conditions": "cited from earlier work"}, "[17]": {"tested_on": "radioresistant prostate cancer cells", "conditions": "cited from earlier work"}, "[18]": {"test": "In vitro release of PNKP inhibitors by dialysis method", "assay_type": "physicochemical", "method": "The in vitro release of encapsulated PNKP inhibitors was studied using a dialysis method. Each dialysis bag (Spectrapor dialysis tubing, MWCO 3.5 kDa, Spectrum Laboratories, Rancho Dominguez, Calif.), containing 2 mL of the micellar formulation or free drug dissolved in acetone, was placed into 300 mL of distilled water maintained at 37° C. in a shaking water bath (65 rpm, Julabo SW 22 shaking water bath, Seelbach, Germany). At selected time intervals, aliquots of 200 μL from the inside of the dialysis bag were collected. The amount of PNKP inhibitor was analyzed using a Varian Prostar 210 HPLC system. Reversed phase chromatography was carried out with a Microsorb-MV 5 μm C18-100 Å column (4.6 mm×250 mm) with 20 μL of sample injected and eluted under isocratic conditions with a solution of 0.1% trifluroacetic acid/acetonitrile (1:1 v/v) at a flow rate of 1.0 mL/min at room temperature."}, "[19]": {"tested_on": "HCT116 PNKP-knock out cells", "test": "Clonogenic survival assay, radio/chemosensitization in PNKP knock-out cells", "assay_type": "cell-based, human", "conditions": "free or encapsulated", "method": "as §1"}, "[20]": {"tested_on": "HCT116 wild type (wt) and PTEN knockout colorectal cells xenograft tumours", "test": "Subcutaneous xenograft tumour response", "assay_type": "in vivo", "conditions": "NIHIII mice, intravenous, three times 2 days apart, free or encapsulated", "method": "In FIG. 32, we have injected 500,000 HCT116 colorectal cancer cells subcutaneously in the right flank of NIHIII mice. […] Tumour volume was then calculated from the measurement of tumour dimensions and used to plot change in tumour volume over time."}},
  "note": "Several values for one entry are separate records, joined by “and”; a condition that tells them apart may be missing. Equal entries are not always repeated. Where two headings read alike, the source gives them in different places.",
  "data": [
    {"compound": "YHWYGYTPQNVI [GE11]", "values": [
      {"measurement": "Kd", "setting": "[1]", "value": "~22", "unit": "nM"}
    ]},
    {"compound": "COc1ccccc1[C@@H](O)[C@H]1C=CC2C(=O)N(c3ccccc3)C(=O)[C@H]2N1Nc1ccc([N+](=O)[O-])cc1", "note": "(some centres unmarked) [Compound A83B4C3]", "values": [
      {"measurement": "solubility compared with A12B4C3", "setting": "[2]", "value": "more soluble"}
    ]},
    {"compound": "O=C1C2C=C[C@H]([C@H](O)c3ccc(Br)cc3)N(Nc3ccc([N+](=O)[O-])cc3)[C@@H]2C(=O)N1c1ccccc1", "note": "(some centres unmarked) [Compound A44B4C3]", "values": [
      {"measurement": "solubility compared with A12B4C3", "setting": "[2]", "value": "more soluble"}
    ]},
    {"compound": "CCCCCCCCCC[C@@H](O)[C@@H]1C=CC2C(=O)N(c3ccc(N4CCNCC4)cc3)C(=O)[C@H]2N1Nc1ccc([N+](=O)[O-])cc1", "note": "(some centres unmarked) [Compound A12B4C50]", "values": [
      {"measurement": "usable concentration in clonogenic survival assays (not affecting cell growth)", "setting": "[3]", "value": "≤ 5", "unit": "µM"},
      {"measurement": "concentrations at which cell growth was affected", "setting": "[3]; free and encapsulated, 72 h", "value": "> 5", "unit": "µM"},
      {"measurement": "level at which encapsulated inhibitor sensitized HCT116 cells to radiation and irinotecan", "setting": "[4]", "value": 4, "unit": "µM"},
      {"measurement": "level at which encapsulated inhibitor induced synthetic lethality", "setting": "[5]", "value": 4, "unit": "µM"},
      {"measurement": "toxicity to HCT116 PTEN+/+ cells", "setting": "[6]", "value": "showed toxicity"},
      {"measurement": "water solubility", "setting": "[2]", "value": "low water solubility"}
    ]},
    {"compound": "CCCCCCCCCC[C@@H](O)[C@H]1C=CC2C(=O)N(c3ccccc3)C(=O)[C@H]2N1Nc1ccc([N+](=O)[O-])cc1", "note": "(stereo in doubt) [Compound A12B4C3, 2-(1-hydroxyundecyl)-1-(4-nitrophenylamino)-6-phenyl-6,7a-dihydro-1H-pyrrolo[3,4-b]pyridine-5,7(2H, 4aH)-dione]", "values": [
      {"measurement": "Kd", "setting": "[7]", "value": 370, "unit": "nM"},
      {"measurement": "IC50", "setting": "[8]", "value": 14000, "unit": "nM"},
      {"measurement": "Kd", "setting": "[9]", "value": 340, "unit": "nM"},
      {"measurement": "inhibition of murine PNKP", "setting": "[10]", "value": "only slightly reduced efficacy"},
      {"measurement": "specificity", "setting": "[11]", "value": "specificity for PNKP"},
      {"measurement": "cytotoxicity", "setting": "[12]", "value": "low cytotoxicity"},
      {"measurement": "sensitization to γ-radiation and camptothecin", "setting": "[13]", "value": "able to sensitize"},
      {"measurement": "sensitization to γ-radiation and camptothecin", "setting": "[14]", "value": "able to sensitize"},
      {"measurement": "sensitization of PNKP-down-regulated cells", "setting": "[15]", "value": "failed to sensitize"},
      {"measurement": "sensitization to Auger electron-emitting radioimmunoconjugate", "setting": "[16]", "value": "sensitizes"},
      {"measurement": "sensitization to irradiation by carbon ions", "setting": "[17]", "value": "sensitizes"}
    ]},
    {"compound": "COc1ccccc1C(O)C1C=CC2C(=O)N(Cc3cccc4ccccc34)C(=O)C2N1Nc1ccc([N+](=O)[O-])cc1", "note": "(centres unmarked) [Compound A83B4C63, 2-[hydroxy(2-methoxyphenyl)methyl]-6-(naphthalen-1-ylmethyl)-1-[(4-nitrophenyl)amino]2H,4aH,7aH-pyrrolo[3,4-b]pyridine-5,7-dione]", "values": [
      {"measurement": "drug released from the dialysis bag", "setting": "[18]; free drug, within 6 h, 37° C.", "value": 59.4, "unit": "%"},
      {"measurement": "drug released", "setting": "[18]; from PEO-b-PBCL micelles, within 6 h, 37° C.", "value": 30.6, "unit": "%"},
      {"measurement": "drug release", "setting": "[18]; from PEO-b-PCL formulations, within 24 h", "value": 84.2, "unit": "%"},
      {"measurement": "drug released", "setting": "[18]; from PEO-b-PCL micelles, within 6 h, 37° C.", "value": 66.5, "unit": "%"},
      {"measurement": "cumulative release", "setting": "[18]; from respective optimum micelles (PEO-b-PCCL for A12B4C50, PEO-b-PBCL for A83B4C63), within 24 h", "value": "48% and 48.2%"},
      {"measurement": "usable concentration in clonogenic survival assays (not affecting cell growth)", "setting": "[3]", "value": "< 20", "unit": "µM"},
      {"measurement": "level at which encapsulated inhibitor sensitized HCT116 cells to radiation and irinotecan", "setting": "[4]", "value": 6, "unit": "µM"},
      {"measurement": "sensitization of HCT116 PNKP-knock out cells to radiation or irinotecan", "setting": "[19]", "value": "failed to further sensitize"},
      {"measurement": "synthetic lethality in HCT116 PTEN−/− cells", "setting": "[5]; 9-14 days treatment", "value": "more specifically toxic to PTEN-deficient cells than A12B4C50"},
      {"measurement": "level at which encapsulated inhibitor induced synthetic lethality", "setting": "[5]", "value": 4, "unit": "µM"},
      {"measurement": "tumour volume response, PTEN positive versus PTEN negative tumour model", "setting": "[20]", "value": "not as effective in the PTEN positive tumour model as it is in the PTEN negative tumour model"},
      {"measurement": "water solubility", "setting": "[2]", "value": "low water solubility"}
    ]}
  ]
}
